Measurements as given in patent US12209081B2 (Katholieke Universiteit Leuven, priority 2020, dated 2025).

biological target: mouse TRPM3α2 (mTRPM3) ion channel (Mus musculus (Mouse), UniProt J9SQF3); experiment: TRPM3 ion channel driven Ca2+ uptake, Fluo-4 AM assay, mTRPM3alpha2 overexpressing flip-in HEK293 cells stimulated with pregnenolone sulfate; type: cell-based; settings: PS 50 μM, cpds 200-299
Summary of the method: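 Flip-in HEK293 cells loaded with Fluo-4 AM were added to plates holding compound plus 50 μM pregnenolone sulfate in Ca2+-containing Krebs buffer. Fluorescence (ex 485/em 535 nm) read directly after cell addition; % inhibition relative to PS-stimulated vehicle and positive-control inhibitor.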

Chain of mouse TRPM3α2 (mTRPM3) ion channel (J9SQF3 other isoform, or with tags, fused parts or gaps): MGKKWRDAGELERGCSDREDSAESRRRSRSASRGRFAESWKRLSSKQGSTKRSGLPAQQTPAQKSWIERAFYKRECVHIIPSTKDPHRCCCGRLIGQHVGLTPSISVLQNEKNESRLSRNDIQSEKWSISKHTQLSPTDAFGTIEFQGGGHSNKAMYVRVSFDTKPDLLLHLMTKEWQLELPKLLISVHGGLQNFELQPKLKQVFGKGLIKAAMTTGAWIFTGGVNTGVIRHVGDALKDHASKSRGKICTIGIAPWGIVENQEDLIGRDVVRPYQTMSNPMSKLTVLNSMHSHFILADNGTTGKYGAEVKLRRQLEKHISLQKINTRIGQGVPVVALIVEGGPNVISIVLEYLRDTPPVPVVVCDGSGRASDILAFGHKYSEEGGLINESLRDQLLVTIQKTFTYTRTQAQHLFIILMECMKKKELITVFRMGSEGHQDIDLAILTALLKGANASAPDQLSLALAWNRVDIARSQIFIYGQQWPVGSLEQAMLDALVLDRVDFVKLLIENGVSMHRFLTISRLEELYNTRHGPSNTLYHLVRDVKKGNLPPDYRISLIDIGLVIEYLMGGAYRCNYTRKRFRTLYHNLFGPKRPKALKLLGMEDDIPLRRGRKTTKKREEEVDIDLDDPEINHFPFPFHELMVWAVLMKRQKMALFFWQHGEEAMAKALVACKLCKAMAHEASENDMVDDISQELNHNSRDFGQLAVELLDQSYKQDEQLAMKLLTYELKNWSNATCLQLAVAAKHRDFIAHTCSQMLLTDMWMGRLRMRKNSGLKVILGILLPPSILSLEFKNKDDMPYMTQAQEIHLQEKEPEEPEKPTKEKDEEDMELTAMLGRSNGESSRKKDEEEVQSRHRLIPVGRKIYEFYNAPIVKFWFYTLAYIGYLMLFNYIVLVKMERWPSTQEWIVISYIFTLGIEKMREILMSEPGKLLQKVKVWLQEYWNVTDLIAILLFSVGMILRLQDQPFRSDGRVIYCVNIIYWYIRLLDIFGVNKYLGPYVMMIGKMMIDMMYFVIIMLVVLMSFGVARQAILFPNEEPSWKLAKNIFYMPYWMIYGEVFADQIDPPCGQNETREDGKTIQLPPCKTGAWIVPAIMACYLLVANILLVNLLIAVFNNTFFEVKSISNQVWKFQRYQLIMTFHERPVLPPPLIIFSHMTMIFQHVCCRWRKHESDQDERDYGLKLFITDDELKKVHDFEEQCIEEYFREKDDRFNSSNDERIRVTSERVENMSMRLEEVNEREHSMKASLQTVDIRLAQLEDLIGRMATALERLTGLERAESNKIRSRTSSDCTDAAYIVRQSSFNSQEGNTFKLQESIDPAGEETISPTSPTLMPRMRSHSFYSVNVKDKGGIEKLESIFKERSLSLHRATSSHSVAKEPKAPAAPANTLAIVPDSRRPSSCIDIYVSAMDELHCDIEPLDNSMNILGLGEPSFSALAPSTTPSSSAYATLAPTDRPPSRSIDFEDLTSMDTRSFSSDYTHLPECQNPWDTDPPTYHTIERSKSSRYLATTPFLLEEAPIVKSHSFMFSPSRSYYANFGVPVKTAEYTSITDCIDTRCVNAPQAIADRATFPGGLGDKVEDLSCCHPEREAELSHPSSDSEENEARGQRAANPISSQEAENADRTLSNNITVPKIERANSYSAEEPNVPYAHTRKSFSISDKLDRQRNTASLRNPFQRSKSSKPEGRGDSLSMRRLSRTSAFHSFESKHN

IC50 [µM] | SMILES
< 1 | Cc1oc2ccc(OCc3cccnc3C(F)(F)F)cc2c1C(=O)NC1(CO)CC1 [compound 200, N-(1-(hydroxymethyl)cyclopropyl)-2-methyl-5-((2-(trifluoromethyl)pyridin-3-yl)methoxy) -benzofuran-3-carboxamide]
< 1 | Cc1oc2ccc(OCc3nccn3C)cc2c1C(=O)NC1(CO)CCOCC1 [compound 204, N-(4-(hydroxymethyl)tetrahydro-2H-pyran-4-yl)-2-methyl-5-((1-methyl-1H-imidazol-2-yl) -methoxy)benzofuran-3-carboxamide]
< 1 | CCOc1ncccc1COc1ccc2oc(C)c(C(=O)NC3(CO)CCOCC3)c2c1 [compound 206, 5-((2-ethoxypyridin-3-yl)methoxy)-N-(4-(hydroxymethyl)tetrahydro-2H-pyran-4-yl)-2-methyl-benzofuran-3-carboxamide]
< 1 | Cc1ncsc1COc1ccc2oc(C)c(C(N)=O)c2c1 [compound 232, 2-methyl-5-((4-methylthiazol-5-yl)methoxy)benzofuran-3-carboxamide]
< 1 | Cc1ncsc1COc1ccc2oc(C)c(C(=O)N[C@H](C)C(N)=O)c2c1 [compound 271, (R)-N-(1-amino-1-oxopropan-2-yl)-2-methyl-5-((4-methylthiazol-5-yl)methoxy)benzofuran-3-carboxamide]
< 1 | Cc1ncsc1COc1ccc2oc(C)c(C(=O)N[C@@H](CS(C)(=O)=O)C(N)=O)c2c1 [compound 272, (R)-N-(1-amino-3-(methylsulfonyl)-1-oxopropan-2-yl)-2-methyl-5-((4-methylthiazol-5-yl)methoxy)benzofuran-3-carboxamide]
< 1 | Cc1ncsc1COc1ccc2oc(C)c(C(=O)N[C@@H](C(N)=O)C(C)C)c2c1 [compound 273, (R)-N-(1-amino-3-methyl-1-oxobutan-2-yl)-2-methyl-5-((4-methylthiazol-5-yl)methoxy)benzofuran-3-carboxamide]
< 1 | Cc1ncc(COc2ccc3oc(C)c(C(=O)N[C@H](CO)CS(C)(=O)=O)c3c2)s1 [compound 274, (R)-N-(1-hydroxy-3-(methylsulfonyl)propan-2-yl)-2-methyl-5-((2-methylthiazol-5-yl)methoxy)benzofuran-3-carboxamide]
< 1 | Cc1ncsc1COc1ccc2oc(C)c(C(=O)N[C@H](CO)CS(C)(=O)=O)c2c1 [compound 275]
< 1 | CNC(=O)[C@@H](CO)NC(=O)c1c(C)oc2ccc(OCc3scnc3C)cc12 [compound 276, (R)-N-(3-hydroxy-1-(methylamino)-1-oxopropan-2-yl)-2-methyl-5-((4-methylthiazol-5-yl)methoxy)benzofuran-3-carboxamide]
< 1 | Cc1ncc(COc2ccc3oc(C)c(C(=O)N[C@@H](CO)C(=O)N(C)C)c3c2)s1 [compound 278, (S)-N-(1-(dimethylamino)-3-hydroxy-1-oxopropan-2-yl)-2-methyl-5-((2-methylthiazol-5-yl)methoxy)benzofuran-3-carboxamide]
< 1 | Cc1ncsc1COc1ccc2oc(C)c(C(=O)N[C@@H](C)C(N)=O)c2c1 [compound 279, (S)-N-(1-amino-1-oxopropan-2-yl)-2-methyl-5-((4-methylthiazol-5-yl)methoxy)benzofuran-3-carboxamide]
< 1 | Cc1oc2ccc(OCc3cccnc3C(F)(F)F)cc2c1C(=O)N[C@@H](CO)C(N)=O [compound 280, (S)-N-(1-amino-3-hydroxy-1-oxopropan-2-yl)-2-methyl-5-((2-(trifluoromethyl)pyridin-3-yl)methoxy)benzofuran-3-carboxamide]
< 1 | Cc1oc2ccc(OCc3cnc(C(F)(F)F)s3)cc2c1C(=O)N[C@@H](CO)C(N)=O [compound 281, (S)-N-(1-amino-3-hydroxy-1-oxopropan-2-yl)-2-methyl-5-((2-(trifluoromethyl)thiazol-5-yl)methoxy)benzofuran-3-carboxamide]
< 1 | Cc1nc(C(F)(F)F)c(COc2ccc3oc(C)c(C(=O)N[C@@H](CO)C(N)=O)c3c2)s1 [compound 282, (S)-N-(1-amino-3-hydroxy-1-oxopropan-2-yl)-2-methyl-5-((2-methyl-4-(trifluoromethyl)thiazol-5-yl)methoxy)benzofuran-3-carboxamide]
< 1 | Cc1ncc(COc2ccc3oc(C)c(C(=O)N[C@@H](CO)C(N)=O)c3c2)o1 [compound 283, (S)-N-(1-amino-3-hydroxy-1-oxopropan-2-yl)-2-methyl-5-((2-methyloxazol-5-yl)methoxy)benzofuran-3-carboxamide]
< 1 | Cc1ncccc1COc1ccc2oc(C)c(C(=O)N[C@@H](CO)C(N)=O)c2c1 [compound 284, (S)-N-(1-amino-3-hydroxy-1-oxopropan-2-yl)-2-methyl-5-((2-methylpyridin-3-yl)methoxy)benzofuran-3-carboxamide]

same assay, conditions: PS (50 μM) stimulated, cpd 001-199

IC50 [µM] | SMILES
< 1 | Cc1ncsc1COc1ccc2oc(C)c(C(=O)Nc3ccnn3C)c2c1 [compound 171, 2-methyl-N-(1-methyl-1H-pyrazol-5-yl)-5-((4-methylthiazol-5-yl)methoxy)benzofuran-3-carboxamide]
< 1 | Cc1oc2ccc(OCc3cccnc3C(F)(F)F)cc2c1C(=O)NC1CC2(CNC2)C1 [compound 173, 2-methyl-N-(2-azaspiro[3,3]heptan-6-yl)-5-((2-(trifluoromethyl)pyridin-3-yl)methoxy)benzofuran-3-carboxamide]
< 1 | Cc1ncsc1COc1cc2c(C(=O)NC3(CO)CCOCC3)c(C)oc2cc1Cl [compound 174, 6-chloro-N-(4-(hydroxymethyl)tetrahydro-2H-pyran-4-yl)-2-methyl-5-((4-methylthiazol-5-yl) -methoxy)benzofuran-3-carboxamide]
< 1 | Cc1oc2ccc(OCc3cccnc3C(F)(F)F)cc2c1C(=O)N[C@@H]1CN(C(=O)OCC(F)(F)F)CC1(F)F [compound 175, 2,2,2-trifluoroethyl (R)-3,3-difluoro-4-(2-methyl-5-((2-(trifluoromethyl)pyridin-3-yl)methoxy) -benzofuran-3-carboxamido)pyrrolidine-1-carboxylate]
< 1 | Cc1ncsc1COc1ccc2oc(C)c(C(=O)NC3(CO)CCOCC3)c2c1F [compound 177, 4-fluoro-N-(4-(hydroxymethyl)tetrahydro-2H-pyran-4-yl)-2-methyl-5-((4-methylthiazol-5-yl) -methoxy)benzofuran-3-carboxamide]
< 1 | Cc1ncsc1COc1cc2c(C(=O)NC3(CO)CCOCC3)c(C)oc2cc1F [compound 182, 6-fluoro-N-(4-(hydroxymethyl)tetrahydro-2H-pyran-4-yl)-2-methyl-5-((4-methylthiazol-5-yl)methoxy)benzofuran-3-carboxamide]
> 20 | Cc1ncsc1COc1ccc2oc(C)c(C(=O)n3ccc(N)n3)c2c1 [compound 192, (3-amino-1H-pyrazol-1-yl) (2-methyl-5-((4-methylthiazol-5-yl)methoxy)benzofuran-3-yl) -methanone]
> 20 | Cc1ncsc1COc1ccc2oc(C)c(C(=O)NC3(CO)CCOCC3)c2c1C#N [compound 193]
> 20 | Cc1ncsc1COc1cc2c(C(=O)NC3(CO)CCOCC3)c(C)oc2cc1C#N [compound 194, 6-cyano-N-(4-(hydroxymethyl)tetrahydro-2H-pyran-4-yl)-2-methyl-5-((4-methylthiazol-5-yl) -methoxy)benzofuran-3-carboxamide]
